In the supplement of paper PMC11451515:

What was measured:
NOMO1 [1] = test: cell viability relative to DMSO control; higher = less cytotoxic; conditions: HPLM + 10% dialyzed FBS, 48 h
Outline: (§1)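 NOMO1, SEM and P12-Ichikawa leukemia cells spent at least four passages adapting to each medium before use. They were seeded at 500 cells/well (NOMO1, SEM) or 1000 cells/well (P12-Ichikawa) in 5 μl in 1536-well plates and pin-dosed with library compounds in DMSO at 11 threefold steps from 47 μM down to 0.79 nM. After 48 h at 37°C, CellTiter-Glo One luminescence was read. Viability is reported as a percentage of the DMSO wells on each plate, with cell-free wells as background.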

P12-Ichikawa [2] = test: as above; conditions: 48 h
Outline: as §1

SEM cells [3] = test: as above; conditions: 48 h
Outline: as §1

NOMO1 [4] = test: AUC of viability dose-response curve (% viability x log10 dose units); higher = less sensitive; conditions: 48 h
Outline: (§2)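 Leukemia cells adapted to each medium were seeded at 500 or 1000 cells/well in 1536-well plates and dosed with library compounds in DMSO at 11 threefold doses from 47 μM to 0.79 nM for 48 h at 37°C. CellTiter-Glo One luminescence was normalised per plate to DMSO and cell-free wells, then fitted with a four-parameter log-logistic model over log10 doses. Area under the curve was taken from this fit by the trapezoidal rule, with curves above full viability scaled and curves failing quality control removed.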

P12-Ichikawa [5] = test: as above; conditions: 48 h
Outline: as §2

SEM cells [6] = test: as above; conditions: 48 h
Outline: as §2

CC(C)OC1=CC=C2C(=C1)O\C=C(/C2=O)C3=CC=CC=C3
Conditions	AUC of viability dose-response curve	cell viability [%]
NOMO1 [1], 0.000781 µM	–	116
NOMO1 [1], 0.00234 µM	–	119
NOMO1 [1], 0.00702 µM	–	130
NOMO1 [1], 0.0211 µM	–	143
NOMO1 [1], 0.0632 µM	–	151
NOMO1 [1], 0.19 µM	–	120
NOMO1 [1], 0.569 µM	–	122
NOMO1 [1], 1.71 µM	–	105
NOMO1 [1], 5.12 µM	–	108
NOMO1 [1], 15.4 µM	–	123
NOMO1 [1], 46.1 µM	–	120
NOMO1 [4], HPLM + 10% dialyzed FBS	447	–
NOMO1 [4], RPMI 5 mM glucose + 10% FBS	435	–
NOMO1 [4], RPMI 5 mM glucose + 10% dialyzed FBS	471	–
P12-Ichikawa [5], HPLM + 10% dialyzed FBS	467	–
P12-Ichikawa [5], RPMI 5 mM glucose + 10% FBS	465	–
P12-Ichikawa [5], RPMI 5 mM glucose + 10% dialyzed FBS	465	–
SEM cells [6], HPLM + 10% dialyzed FBS	461	–
SEM cells [6], RPMI 5 mM glucose + 10% FBS	460	–
SEM cells [6], RPMI 5 mM glucose + 10% dialyzed FBS	442	–

cell viability [%]
Conditions	HPLM + 10% dialyzed FBS	RPMI 5 mM glucose + 10% FBS	RPMI 5 mM glucose + 10% dialyzed FBS
P12-Ichikawa [2], 0.000781 µM	118	123	127
P12-Ichikawa [2], 0.00234 µM	126	118	121
P12-Ichikawa [2], 0.00702 µM	122	127	122
P12-Ichikawa [2], 0.0211 µM	128	128	116
P12-Ichikawa [2], 0.0632 µM	120	131	132
P12-Ichikawa [2], 0.19 µM	119	122	110
P12-Ichikawa [2], 0.569 µM	124	121	122
P12-Ichikawa [2], 1.71 µM	117	123	115
P12-Ichikawa [2], 5.12 µM	113	115	119
P12-Ichikawa [2], 15.4 µM	118	110	92.4
P12-Ichikawa [2], 46.1 µM	112	113	110
SEM cells [3], 0.000781 µM	106	113	106
SEM cells [3], 0.00234 µM	118	123	133
SEM cells [3], 0.00702 µM	105	134	121
SEM cells [3], 0.0211 µM	118	109	126
SEM cells [3], 0.0632 µM	115	131	129
SEM cells [3], 0.19 µM	123	130	146
SEM cells [3], 0.569 µM	110	133	157
SEM cells [3], 1.71 µM	125	144	156
SEM cells [3], 5.12 µM	112	128	147
SEM cells [3], 15.4 µM	133	144	148
SEM cells [3], 46.1 µM	106	116	126
